14 compounds from patent publication US9249125B2, “Pyrazole derivatives as p38 MAP inhibitors” (RESPIVERT LIMITED, priority 2012, dated 2016) can be followed below.

In experiment [1] the test system is LPS-induced IL-8 release in d-U937 cells. In words: LPS-induced IL-8 release in d-U937 cells. To be noted: Homo sapiens, dU937, read-out: LPS Induced Release of Cytokine in d-937 Cells IL-8 IC50. The format is cell-based. The method in brief: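 Read-out: TNFα and IL-8 released into supernatant, sandwich ELISA, expressed as inhibition versus vehicle at each dose and fitted to give REC50. Cells were PMA-differentiated U937 (100 ng/mL, 48–72 hr), compound-exposed 2 hr before a 4 hr LPS stimulus (0.1 μg/mL).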

Experiment [2] has as its system LPS-induced TNFα release in d-U937 cells. Nature of the experiment: LPS-induced TNFα release in d-U937 cells. It is filed as cell-based. As to conditions: Homo sapiens, dU937, relative to 10 μg/mL BIRB796, read-out: LPS Induced Release of Cytokine in d-937 Cells TNFα REC50. Put shortly: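 Sandwich ELISA of culture supernatant gives TNFα and IL-8 levels after a 4 hr challenge with LPS (0.1 μg/mL, E. coli O111:B4). Before stimulation, macrophage-like U937 cells, obtained by 48–72 hr in PMA at 100 ng/mL, sit with compound for 2 hr. Relative EC50 is derived from concentration-response data.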

The next experiment has as its target Syk (Homo sapiens (Human), UniProt P43405). In words: Syk enzyme inhibition (FRET, Z-LYTE). The format is biochemical. Put shortly:
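Z-LYTE FRET kinase assay: enzyme (3000 or 2000 ng/mL stock, respectively) preincubated 2 h at RT with compound (4–0.004 μg/mL stocks), then FRET peptide plus ATP (800 μM stock for c-Src, 60 μM for Syk) added for 1 h. Protease development 1 h; phosphorylation from coumarin/fluorescein emission ratio.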

The target of the next experiment is p38 MAPKα (Homo sapiens (Human), UniProt Q16539). In words: p38 MAPKα enzyme inhibition (FRET, Z-LYTE). The format is biochemical.
The target in a further experiment is GSK3α (Homo sapiens (Human), UniProt P49840). Nature of the experiment: GSK 3α enzyme inhibition (FRET, Z-LYTE). It is filed as biochemical. The method in brief:
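Phosphorylation was read as the donor (coumarin) to acceptor (fluorescein) ratio after a 1 hr protease step destroying non-phosphorylated peptide. Before this, compound (4–0.004 μg/mL stocks) sat 2 hr at RT with GSK3α (500 ng/mL stock), followed by 1 hr kinase reaction with 8 μM peptide and 40 μM ATP stocks.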

The test system of experiment [3] is Poly I:C-induced ICAM-1 expression in BEAS2B cells. In words: Poly I:C-induced ICAM-1 expression in BEAS2B cells. As to conditions: Homo sapiens, BEAS-2B, read-out: Poly IC induced ICAM1 in BEAS2B IC50. It is filed as cell-based. Put shortly: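 Cell-based ELISA read at 450 nm minus 655 nm, divided by crystal violet OD595 to normalize for cell number, gave ICAM-1 levels. Readout was taken 18 hr after poly I:C (1 μg/mL, Oligofectamine) transfection of human bronchial BEAS2B cells pretreated 2 hr with test compound.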

Broadly, the IC50 is the point on the concentration scale where inhibition reaches its midpoint.

The structures appear in SMILES notation.

Sequence of p38 MAPKα (Q16539 whole entry): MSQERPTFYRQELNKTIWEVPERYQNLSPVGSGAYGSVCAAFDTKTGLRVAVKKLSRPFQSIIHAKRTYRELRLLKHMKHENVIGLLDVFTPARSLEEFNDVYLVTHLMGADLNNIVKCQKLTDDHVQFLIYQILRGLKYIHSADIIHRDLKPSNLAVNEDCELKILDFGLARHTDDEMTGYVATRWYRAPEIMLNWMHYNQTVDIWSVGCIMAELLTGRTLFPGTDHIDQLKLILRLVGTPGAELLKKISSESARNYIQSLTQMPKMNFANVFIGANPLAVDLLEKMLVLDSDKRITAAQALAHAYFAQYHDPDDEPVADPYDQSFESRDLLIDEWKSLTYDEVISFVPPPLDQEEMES
Sequence of GSK3α (P49840 whole entry): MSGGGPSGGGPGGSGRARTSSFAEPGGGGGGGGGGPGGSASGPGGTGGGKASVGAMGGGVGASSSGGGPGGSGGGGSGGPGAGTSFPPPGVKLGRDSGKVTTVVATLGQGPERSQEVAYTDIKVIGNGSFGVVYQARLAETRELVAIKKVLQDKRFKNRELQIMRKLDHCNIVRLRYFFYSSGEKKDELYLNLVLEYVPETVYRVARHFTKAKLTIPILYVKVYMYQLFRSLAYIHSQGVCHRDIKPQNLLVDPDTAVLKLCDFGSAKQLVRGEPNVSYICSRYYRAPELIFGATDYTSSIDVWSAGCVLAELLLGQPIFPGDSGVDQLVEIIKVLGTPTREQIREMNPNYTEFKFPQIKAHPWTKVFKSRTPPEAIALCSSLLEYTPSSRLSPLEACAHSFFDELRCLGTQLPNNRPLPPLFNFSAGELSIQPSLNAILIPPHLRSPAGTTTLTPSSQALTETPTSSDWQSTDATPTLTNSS

Regarding `Cc1ccc(-n2nc(C(C)(C)C)cc2NC(=O)Nc2ccc(Oc3ccnc(Nc4ccc5ncsc5c4)n3)c3ccccc23)cc1` [Example 35, 1-(4-((2-(benzo[d]thiazol-6-ylamino)pyrimidin-4-yl)oxy)naphthalen-1-yl)-3-(3-(tert-butyl)-1-(p-tolyl)-1H-pyrazol-5-yl)urea], the IC50 in experiment [1] is 0.0222 µM; against Syk it was > 1.56 µM; against p38 MAPKα, 0.439 µM; against GSK3α, > 15.6 µM; in experiment [3], 0.0027 µM. The EC50 in experiment [2] stood at 0.011 µM.

As to `Cc1ccc(-n2nc(C(C)(C)C)cc2NC(=O)Nc2ccc(Oc3ccnc(Nc4ccc5[nH]cnc5c4)n3)c3ccccc23)cc1` [Example 30, 1-(4-((2-((1H-benzo[d]imidazol-5-yl)amino)pyrimidin-4-yl)oxy)naphthalen-1-yl)-3-(3-(tert-butyl)-1-(p-tolyl)-1H-pyrazol-5-yl)urea], the IC50 in experiment [1] is 0.0077 µM; at Syk, > 1.6 µM; against p38 MAPKα it was 0.089 µM; against GSK3α it was 0.301 µM; in experiment [3] it was 0.0047 µM. Besides, in experiment [2], the EC50 worked out at 0.0018 µM.

Regarding `Cc1ccc(-n2nc(C(C)(C)C)cc2NC(=O)Nc2ccc(Oc3ccnc(Nc4ccc5c(ccn5C)c4)n3)c3ccccc23)cc1` [Example 18, 1-(3-(tert-butyl)-1-(p-tolyl)-1H-pyrazol-5-yl)-3-(4-((2-((1-methyl-1H-indol-5-yl)amino)pyrimidin-4-yl)oxy)naphthalen-1-yl)urea], the half-inhibitory concentration (IC50) in experiment [1] was 0.0057 µM; against Syk it was 0.092 µM; against p38 MAPKα it was 1.36 µM; against GSK3α, 7.08 µM; in experiment [3], 0.0019 µM. For the same compound, the EC50 in experiment [2] was 0.0028 µM.

Regarding `Cc1ccc(-n2nc(C(C)(C)C)cc2NC(=O)Nc2ccc(Oc3cc(Nc4ccc5[nH]ncc5c4)ncn3)c3ccccc23)cc1` [Example 23, 1-(4-((6-((1H-indazol-5-yl)amino)pyrimidin-4-yl)oxy)naphthalen-1-yl)-3-(3-(tert-butyl)-1-(p-tolyl)-1H-pyrazol-5-yl)urea], the IC50 in experiment [1] came out at 0.0027 µM; against Syk, 0.057 µM; at p38 MAPKα, 0.03 µM; on GSK3α, 12.5 µM; in experiment [3], 0.0043 µM. Also, in experiment [2], the EC50 worked out at 0.0033 µM.

As for `Cc1cc(Nc2nccc(Oc3ccc(NC(=O)Nc4cc(C(C)(C)C)nn4-c4ccc(=O)n(CCN5CCOCC5)c4)c4ccccc34)n2)cc2cn[nH]c12` [Example 89, 1-(3-(tert-butyl)-1-(1-(2-morpholinoethyl)-6-oxo-1,6-dihydropyridin-3-yl)-1H-pyrazol-5-yl)-3-(4-((2-((7-methyl-1H-indazol-5-yl)amino)pyrimidin-4-yl)oxy)naphthalen-1-yl)urea], the IC50 in experiment [1] worked out at 0.0288 µM; against Syk it was 0.003 µM; against p38 MAPKα, 0.047 µM; on GSK3α, 2.78 µM; in experiment [3] it was 0.0171 µM. In addition, in experiment [2], the EC50 turned out to be 0.0108 µM.

For `COc1ccc(-n2nc(C(C)(C)C)cc2NC(=O)Nc2ccc(Oc3ccnc(Nc4ccc5[nH]ncc5c4)n3)c3ccccc23)cc1` [Example 40, 1-(4-((2-((1H-indazol-5-yl)amino)pyrimidin-4-yl)oxy)naphthalen-1-yl)-3-(3-(tert-butyl)-1-(4-methoxyphenyl)-1H-pyrazol-5-yl)urea], the IC50 in experiment [1] was 0.0072 µM; against Syk, 0.024 µM; against p38 MAPKα, 0.068 µM; against GSK3α, > 15.6 µM; in experiment [3] it was 0.0024 µM. Besides, the EC50 in experiment [2] came to 0.0015 µM.

With `CC(C)(C)c1cc(NC(=O)Nc2ccc(Oc3ccnc(Nc4ccc5[nH]ncc5c4)n3)c3ccccc23)n(-c2ccc(OCCN3CCOCC3)cc2)n1` [Example 12, 1-(4-((2-((1H-Indazol-5-yl)amino)pyrimidin-4-yl)oxy)naphthalen-1-yl)-3-(3-(tert-butyl)-1-(4-(2-morpholinoethoxy)phenyl)-1H-pyrazol-5-yl)urea], the half-maximal inhibitory concentration (IC50) in experiment [1] stood at 0.002 µM; at Syk, 0.022 µM; against p38 MAPKα, 0.077 µM; against GSK3α, 3.89 µM; in experiment [3], 0.0216 µM. In addition, in experiment [2], the EC50 turned out to be 0.0016 µM.

As for `Cc1ccc(-n2nc(C(C)(C)C)cc2NC(=O)Nc2ccc(Oc3ccnc(Nc4cccc5cc[nH]c45)n3)c3ccccc23)cc1` [Example 17], the IC50 in experiment [1] is 0.0074 µM; on Syk, 0.28 µM; at p38 MAPKα, 0.376 µM; on GSK3α, > 16.1 µM; in experiment [3] it was 0.0084 µM. Further, the EC50 in experiment [2] amounted to 0.0087 µM.

For the compound `Cc1ccc(-n2nc(C(C)(C)C)cc2NC(=O)Nc2ccc(Oc3ccnc(Nc4ccc5[nH]ncc5c4)n3)c3ccccc23)cc1` [Example 22, 1-(4-((2-((1H-indazol-5-yl)amino)pyrimidin-4-yl)oxy)naphthalen-1-yl)-3-(3-(tert-butyl)-1-(p-tolyl)-1H-pyrazol-5-yl)urea], the IC50 in experiment [1] is 0.0015 µM; against Syk it was 0.026 µM; against p38 MAPKα it was 0.056 µM; against GSK3α it was > 16 µM; in experiment [3] it was 0.0025 µM. For the same compound, the EC50 in experiment [2] stood at 0.0047 µM.

Take `Cc1ccc(-n2nc(C(C)(C)C)cc2NC(=O)Nc2ccc(Oc3ccnc(Nc4ccc5c(c4)ncn5C)n3)c3ccccc23)cc1` [Example 4, 1-(3-(tert-Butyl)-1-(p-tolyl)-1H-pyrazol-5-yl)-3-(4-((2-((1-methyl-1H-benzo[d]imidazol-5-yl)amino)pyrimidin-4-yl)oxy)naphthalen-1-yl)urea]: the IC50 in experiment [1] is 0.002 µM; at Syk, 0.014 µM; on p38 MAPKα, 0.019 µM; against GSK3α, 1.37 µM; in experiment [3] it was 0.0024 µM. In experiment [2], the EC50 was 0.0024 µM.

With `Cc1cc(Nc2nccc(Oc3ccc(NC(=O)Nc4cc(C(C)(C)C)nn4-c4cccc(OCCN5CCOCC5)c4)c4ccccc34)n2)cc2cn[nH]c12` [Example 56, 1-(3-(tert-butyl)-1-(3-(2-morpholinoethoxy)phenyl)-1H-pyrazol-5-yl)-3-(4-((2-((7-methyl-1H-indazol-5-yl)amino)pyrimidin-4-yl)oxy)naphthalen-1-yl)urea], the IC50 in experiment [1] is 0.011 µM; on Syk, 0.003 µM; at p38 MAPKα, 0.046 µM; on GSK3α it was > 13.3 µM; in experiment [3] it was 0.0119 µM. Moreover, in experiment [2], the EC50 worked out at 0.0049 µM.

Regarding `Cc1ccc(-n2nc(C(C)(C)C)cc2NC(=O)Nc2ccc(Oc3ccnc(Nc4ccc5ncn(C)c5c4)n3)c3ccccc23)cc1` [Example 31, 1-(3-(tert-butyl)-1-(p-tolyl)-1H-pyrazol-5-yl)-3-(4-((2-((1-methyl-1H-benzo[d]imidazol-6-yl)amino)pyrimidin-4-yl)oxy)naphthalen-1-yl)urea], the IC50 is 0.0006 µM in experiment [1]; 0.199 µM against Syk; 0.033 µM at p38 MAPKα; 1.61 µM against GSK3α; 0.0023 µM in experiment [3]. In experiment [2], the EC50 came to 0.0003 µM.

Turning to `Cc1ccc(-n2nc(C(C)(C)C)cc2NC(=O)Nc2ccc(Oc3ccnc(Nc4ccc5cn[nH]c5c4)n3)c3ccccc23)cc1` [Example 24, 1-(4-((2-((1H-indazol-6-yl)amino)pyrimidin-4-yl)oxy)naphthalen-1-yl)-3-(3-(tert-butyl)-1-(p-tolyl)-1H-pyrazol-5-yl)urea], the IC50 in experiment [1] worked out at 0.0169 µM; against Syk, 1.09 µM; against p38 MAPKα, 0.245 µM; on GSK3α, 2.18 µM; in experiment [3], 0.0024 µM. The EC50 in experiment [2] came out at 0.0047 µM.

`Cc1ccc(-n2nc(C(C)(C)C)cc2NC(=O)Nc2ccc(Oc3ccnc(Nc4ccc5scnc5c4)n3)c3ccccc23)cc1` [Example 34, 1-(4-((2-(benzo[d]thiazol-5-ylamino)pyrimidin-4-yl)oxy)naphthalen-1-yl)-3-(3-(tert-butyl)-1-(p-tolyl)-1H-pyrazol-5-yl)urea]: the IC50 in experiment [1] was 0.0034 µM; at Syk it was > 1.56 µM; on p38 MAPKα, 0.308 µM; against GSK3α, 1.62 µM; in experiment [3], 0.0063 µM. Moreover, in experiment [2], the EC50 came to 0.0009 µM.
